Measurements: patent publication US20080269343A1, “GALENIC FORMULATIONS OF ORGANIC COMPOUNDS” (priority 2004, published 2008)

Legend:
[1] = Steady-state pharmacokinetics of aliskiren 300 mg alone, digoxin interaction study, Day 7 (Example 8); assay type: in vivo, human; conditions: 300 mg daily, Day 7, healthy volunteers N 21; for AUC / Cmax / Tmax: human, in vivo, oral, 300 mg
Experimental: The study employed was an open-label, two-period, multiple-dose design to evaluate the pharmacokinetic drug-drug interaction between digoxin and aliskiren when given alone or in combination to healthy volunteers. A total of 22 healthy volunteers were enrolled into the study. The subjects were admitted to the study center at least 24 hours prior to the initial dosing of aliskiren for baseline evaluation. If subjects met all eligibility criteria at baseline, they were randomized into the study and confined to the clinic on days 1-7 and days 17-33. All study medications were taken under fasted condition. The study was completed with the end of study evaluations on Day 34, after the last blood sample was collected.
In period 1 (Days 1-7), subjects received a single 300 mg daily dose of aliskiren for 7 days. Period 1 was followed by a ten (10) day washout period. In period 2, subjects received a single 0.25 mg daily dose of digoxin for 9 days (Days 18-26) and aliskiren 300 mg once a day with a single 0.25 mg daily dose of digoxin co-administered for 7 days (Days 27-33).
Pharmacokinetic blood sampling for aliskiren alone occurred on Day 7 up to 24 hours post dose (5-mL blood samples were collected into lithium heparin tubes on Day 7 of the study at pre-dose, 0.5, 1, 2, 3, 4, 6, 8, 12, 16 and 24 hours after dosing).

[2] = Steady-state pharmacokinetics of aliskiren 300 mg alone, hydrochlorothiazide interaction study, Day 15 (Example 7); assay type: in vivo, human; conditions: 300 mg daily, Day 15, healthy volunteers N 22; for AUC / Cmax / Tmax: both sexes, human, in vivo, oral, 300 mg
Experimental: The study employed was an open-label, two-period, multiple dose design to evaluate the pharmacokinetic drug-drug interaction between hydrochlorothiazide (HCTZ) and aliskiren when given alone or in combination to healthy volunteers. After screening, a total of 22 healthy male and female volunteers were enrolled into the study. The subjects were admitted to the study center at least 12 hours prior to the initial dosing of HCTZ for baseline evaluation. If subjects met all eligibility criteria at baseline, they were randomized into the study and confined to the clinic until study completion. All study medications were taken under fasted conditions. The subjects remained in bed for at least 4 hours after dosing on PK sampling days. The study was completed with the end of study evaluations on Day 20, after the last blood sample was collected.
In period 1 (study Days 1-4), subjects received a single 25 mg daily dose of HCTZ. Period 1 was followed by a 4 day washout period, study Days 5-8. In period 2 (study Days 9-19), subjects received 300 mg of aliskiren once a day for a total of 11 days (Days 9-19), with a single 25 mg dose of HCTZ co-administered for 4 days (Days 16-19).
Pharmacokinetic blood sampling for aliskiren alone occurred on study Day 15 up to 24 hours post-dose (5-mL blood samples were collected into lithium heparin tubes on Day 15 of the study at pre-dose, 0.5, 1, 2, 3, 4, 6, 8, 12, 16 and 24 hours after dosing).

[3] = Ranges of arithmetic mean plasma pharmacokinetic parameters provided by the 300 mg solid oral dosage form (summary of the studies); assay type: in vivo; conditions: human, range of study means
Experimental: (§1) For example, the present invention provides a solid oral dosage form comprising about 300 mg of aliskiren free base, or a respective amount of a pharmaceutically acceptable salt thereof, and a carrier medium, said dosage form providing an arithmetic mean maximum plasma concentration of aliskiren ranging from about 186 to about 394 ng/mL between about 0.25 and about 6 hours following administration of a single dosage of said dosage form.
as §1, with “Furthermore,” for “For example,”, “mg” for “mg of”, “AUC0-96” for “maximum plasma concentration”, “1480” for “186”, “1859 ng·h/mL” for “394 ng/mL between about 0.25 and about 6 hours”, “form. […]” for “form.”
The above description fully discloses the invention including preferred embodiments thereof. […] Arithmetic means for Cmax are calculated using the actual time points when the Cmax is observed whereas for the mean concentration versus time plots the nominal time values are employed.

[4] = Hygroscopicity of the drug substance; assay type: physicochemical

COCCCOc1cc(C[C@@H](C[C@H](N)[C@@H](O)C[C@H](C(=O)NCC(C)(C)C(N)=O)C(C)C)C(C)C)ccc1OC [aliskiren, 2(S),4(S),5(S),7(S)—N-(3-amino-2,2-dimethyl-3-oxopropyl)-2,7-di(1-methylethyl)-4-hydroxy-5-amino-8-[4-methoxy-3-(3-methoxy-propoxy)phenyl]-octanamide]
Cmin^SS ([1]; Geometric Mean): 25.4 ng/mL | AUCτ ([1]; Max): 2710 ng·h/mL | Cmax^SS ([1]; Max): 478 ng/mL | Cmin^SS ([1]; Max): 41.5 ng/mL | tmax^SS ([1]; Max): 6.00 h | Cmin^SS ([1]; Median): 24.1 ng/mL | AUCτ ([1]; Min): 943 ng·h/mL | Cmax^SS ([1]; Min): 131 ng/mL | Cmin^SS ([1]; Min): 13.1 ng/mL | tmax^SS ([1]; Min): 0.50 h | Cmin^SS ([1]; arithmetic mean): 26.5 ng/mL | AUC ([1]; Geometric Mean): 1600 ng·h/mL | Cmax ([1]; Geometric Mean): 246 ng/mL | Tmax ([1]; Geometric Mean): 1.39 h | AUC ([1]; Median): 1560 ng·h/mL | Cmax ([1]; Median): 234 ng/mL | Tmax ([1]; Median): 1 h | AUC ([1]; arithmetic mean): 1670 ng·h/mL | Cmax ([1]; arithmetic mean): 261 ng/mL | Tmax ([1]; arithmetic mean): 1.93 h | Cmin^SS ([2]; Geometric Mean): 32.5 ng/mL | AUCτ ([2]; Max): 3801 ng·h/mL | Cmax^SS ([2]; Max): 872.0 ng/mL | Cmin^SS ([2]; Max): 56.5 ng/mL | tmax^SS ([2]; Max): 6.00 h | Cmin^SS ([2]; Median): 35.4 ng/mL | AUCτ ([2]; Min): 512 ng·h/mL | Cmax^SS ([2]; Min): 27.3 ng/mL | Cmin^SS ([2]; Min): 13.4 ng/mL | tmax^SS ([2]; Min): 0.50 h | Cmin^SS ([2]; arithmetic mean): 35.0 ng/mL | AUC ([2]; Geometric Mean): 2070 ng·h/mL | Cmax ([2]; Geometric Mean): 354 ng/mL | Tmax ([2]; Geometric Mean): 1.84 h | AUC ([2]; Median): 2320 ng·h/mL | Cmax ([2]; Median): 406 ng/mL | Tmax ([2]; Median): 2.24 h | AUC ([2]; arithmetic mean): 2310 ng·h/mL | Cmax ([2]; arithmetic mean): 425 ng/mL | Tmax ([2]; arithmetic mean): 2.23 h | AUC ([3]; about 300 mg every 24 hours, steady state, read-out: arithmetic mean AUC0-τ of aliskiren): 1670 to 2520 ng·h/mL | AUC(0-t) ([3]; single dosage of about 300 mg free base, read-out: arithmetic mean AUC0-96 of aliskiren): 1480 to 1860 ng·h/mL | hygroscopicity [4]: highly hygroscopic
